The NIST ThermoML archive (doi:10.1016/j.fluid.2005.06.019)

Assays:
[1] = Liquid; for mass density: 101.33 kPa
[2] = refractive index (Na D-line) (dimensionless); conditions: 298.15 K; 101.33 kPa; Liquid; Standard Abbe refractometry

CC(C)CO [2-methyl-1-propanol]
[1]
Conditions | mass density [kg/m3] | vapor or sublimation pressure [kPa]
298.15 K | 797.83 | –
381.09 K | – | 101.3

Conditions | refractive index
[2] | 1.3937

CC(=O)OCC(C)C [2-methylpropyl ethanoate]
[1]
Conditions | mass density [kg/m3] | vapor or sublimation pressure [kPa]
293.15 K | 866.12 | –
389.9 K | – | 101.3

Conditions | refractive index
[2] | 1.3876

CCCCCCO [hexan-1-ol]
[1]
Conditions | mass density [kg/m3] | vapor or sublimation pressure [kPa]
298.15 K | 814.85 | –
356.39 K | – | 5
364.42 K | – | 7.5
368.04 K | – | 8.9
372.23 K | – | 10.9
376.68 K | – | 13.4
379.61 K | – | 15.3
384.92 K | – | 19.3
384.93 K | – | 19.3
390.31 K | – | 24.2
394.34 K | – | 28.5
398.14 K | – | 33.1
401.57 K | – | 37.8
404.56 K | – | 42.3
407.43 K | – | 47.1
410.27 K | – | 52.2
412.75 K | – | 57
414.93 K | – | 61.5
417.18 K | – | 66.4
417.28 K | – | 66.7
419.52 K | – | 71.9
421.96 K | – | 78
424.54 K | – | 84.8
426.31 K | – | 89.8
428.2 K | – | 95.3
429.97 K | – | 100.8
430 K | – | 101.5
430.06 K | – | 101.3
430.26 K | – | 101.7

Conditions | refractive index
[2] | 1.4162
